Test results published in patent US20260262639A1, “PHENYLCYCLOHEXANONE COMPOUND AND USE THEREFOR” (SUMITOMO CHEMICAL COMPANY, LIMITED, priority 2023, published 2026).

System: Pythium ultimum
Experiment: Control test against seedling blight fungus (Pythium ultimum)
Assay type: cell-based
Conditions: 1 μL of 500 ppm DMSO solution + 150 μL PDB medium with spores, 96 well plate, 23° C., 5 days, absorbance at 550 nm
Method: The untreated well represents a test well in which the procedures were carried out under the same conditions as those described in the Test Example except that dimethyl sulfoxide was dispensed in place of a diluted dimethyl sulfoxide solution containing the Present compound. The Present compound was diluted with dimethyl sulfoxide to obtain a diluted solution containing 500 ppm of the compound, 1 μL of the diluted solution was dispensed into a titer plate (96 well), and thereto was then dispensed 150 μL of a potato dextrose broth medium (PDB medium) to which spores of Pythium ultimum were inoculated in advance. This plate was cultured at 23° C. for 5 days, thereby allowing Pythium ultimum to undergo proliferation, and the absorbance at 550 nm of each well of the titer plate was then measured to obtain a value as a degree of growth of Pythium ultimum. As a result, the degree of growth in the well treated with the Present compound was 50% or less relative to the degree of growth in the untreated well.

For `CC1CC(S(C)(=O)=O)C(O)(c2ccccc2)CC1=O` (stereo not shown) [Present compound], the “degree of growth relative to the degree of growth in the untreated well” value was at most 50%.
